Assay results from patent US11352331B2, “Crystal and salt of 4-(naphthalen-1-yl)-4H-1,2,4-triazole compound and preparation method therefor” (MEDSHINE DISCOVERY INC., priority 2017, dated 2022).
Where two headings read alike, the source gives them in different places. Blank lines part the entries; values can stand above or below the compound they belong to.

Legend:
[1] = test system: human liver cells; test: Metabolite detection after incubation in human liver cells for 120 minutes (LC-UV-MSn); assay type: in vitro ADME; conditions: for UV area percentage: 10 μM
Method: The objective of this experiment is detect the metabolites of the compounds after incubation in human liver cells for 120 minutes using LC-UV-MS^n (n=1-2). After data collection, MetaboLynx™ software was used to analyze MS and MS^2 data.
After the cells were incubated with the samples for 2 hours, protein was precipitated using acetonitrile containing formic acid and then the mixture was centrifuged. The supernatant was taken out and blow-dried with nitrogen, and then redissolved and injected for analysis.

[2] = Pharmacokinetics in cynomolgus monkeys after IV and PO administration; assay type: in vivo; conditions: for Mutual transformation between the two axially chiral isomers in vivo: circulation system; for Vd: read-out: Apparent volume of distribution Vdss; for clearance: read-out: Clearance rate Cl; for half-life: read-out: Half-life T1/2 (converted); for C0: read-out: Initial concentration C0; for MRT inf: read-out: Residence time MRT0-inf; for Cmax: read-out: Peak concentration Cmax; for Tmax: read-out: Time to peak Tmax
Method: 24 healthy adult male cynomolgus monkeys were divided into 8 groups (there were IV and PO groups for each compound) with 3 animals per group.
An appropriate amount of the samples was weighted and dissolved in a certain amount of DMSO by ultrasound, followed by addition of PEG400 solution to obtain clear solutions (DMSO/PEG400/H2O (5/40/55)) of the compounds to be tested with a concentration of 2 mg/mL for IV administration.
An appropriate amount of the samples was weighted and dissolved in a certain amount of DMSO by ultrasound, followed by addition of 0.5% MC solution to obtain suspensions (DMSO/0.5% MC (5/95)) of the compounds to be tested with a concentration of 2 mg/mL for PO administration.
24 male cynomolgus monkeys were divided into 8 groups with 3 animals per group, and the drugs were administered through IV and PO after the animals had been fasting overnight. The dose for IV administration was 2 mg/kg and the dosing volume was 1 mL/kg; the dose for PO administration was 10 mg/kg and the dosing volume was 5 mL/kg.
In the IV administration groups, approximately 200 μL of blood was collected 0.083, 0.25, 0.5, 1, 2, 4, 6, 8, and 24 hours after administration; the collected blood samples were added into anticoagulation tubes containing K2-EDTA and centrifuged at 3000 rpm for 15 minutes; the plasma was isolated and stored at −80° C. In the PO administration groups, the blood was collected 0.25, 0.5, 1, 2, 4, 6, 8, and 24 hours after administration, and other operations were the same as in the IV administration group. After the plasma samples were pre-treated to precipitate the protein, the drug concentration in the plasma was determined by LC/MS/MS method. The linear range of the analysis method was 20.00-6000 nM. In PO administration group, urine was collected 0-24 hours after administration, and the drug concentration in the urine was determined by LC/MS/MS method. The linear range of the analysis method was 20.00-6000 nM.

[3] = test system: Liver cells; conditions: Human; cited from earlier work
[4] = test system: Liver cells; conditions: Monkey; cited from earlier work
[5] = Liver microsomes, Dog; cited from earlier work
[6] = Liver microsomes, Human; cited from earlier work
[7] = test system: Liver cells; conditions: Dog; cited from earlier work
[8] = Liver microsomes, Rat; cited from earlier work
[9] = test system: Liver cells; conditions: Rat; cited from earlier work
[10] = Liver microsomes, Monkey; cited from earlier work
[11] = human, 0-144 hour, after lesinurad, cited from earlier work
[12] = Solid stability test of the crystal form A of compound 1; assay type: physicochemical; conditions: high temperature, high humidity and strong light
From the text: Samples placed under high temperature and high humidity conditions were sealed with aluminum foil paper and small holes were punched in the aluminum foil paper to ensure that the sample could fully contact with ambient air; samples placed under strong light conditions were sealed with threaded caps. The samples placed under different conditions were sampled and tested on the 5th day and 10th day (XRPD and HPLC), and the test results were compared with the initial test results obtained on day 0.

[13] = target: T1, OAT-4 (Homo sapiens, UniProt Q9NSA0); test: Inhibition of substrate uptake in MDCK cells overexpressing OAT-4; assay type: cell-based; conditions: MDCK-OAT4 cells
T1 construct: expressed in transfected cells; host or cells: MDCK (canine kidney) cells; the empty-vector control is pcDNA3.1
T1 sequence (Q9NSA0 1-550): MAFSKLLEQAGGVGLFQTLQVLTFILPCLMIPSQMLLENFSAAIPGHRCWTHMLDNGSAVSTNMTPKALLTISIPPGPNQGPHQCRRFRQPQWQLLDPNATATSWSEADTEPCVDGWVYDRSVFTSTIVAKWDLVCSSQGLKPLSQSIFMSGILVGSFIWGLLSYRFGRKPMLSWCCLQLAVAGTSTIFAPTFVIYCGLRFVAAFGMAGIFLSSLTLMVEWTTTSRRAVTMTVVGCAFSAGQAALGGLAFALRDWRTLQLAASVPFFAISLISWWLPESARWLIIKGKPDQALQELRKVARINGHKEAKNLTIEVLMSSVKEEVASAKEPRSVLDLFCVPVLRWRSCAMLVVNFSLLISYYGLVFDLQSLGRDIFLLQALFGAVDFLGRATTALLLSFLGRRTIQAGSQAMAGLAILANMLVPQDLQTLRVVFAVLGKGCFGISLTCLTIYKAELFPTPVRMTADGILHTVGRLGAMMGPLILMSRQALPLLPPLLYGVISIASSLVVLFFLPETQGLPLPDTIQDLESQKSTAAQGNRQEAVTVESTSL
Method: The IC50 values of the compounds in inhibiting reabsorption of specific substrates were determined using MDCK (canine kidney cell) cell line stably transfected with OAT-4 (organic anion transporter-4) gene.
The cell culture medium used in the intake inhibition experiment was DMEM (cell essential medium culture medium) supplemented with 10% FBS (containing penicillin and streptomycin). […] The cell suspensions were adjusted to obtain a density of 2.0-3.0×10^5 cells/mL with medium, and then inoculated into 24-well cell culture plates in an amount of 1 mL/well. The cells were cultured in an incubator with 5% CO2 and saturated air humidity at 37° C. for 2-3 days, after which the cells grew over the wells. […]
The uptake value of the transporter cells in the group containing only the radiolabeled substrate (deducting the uptake value U0 cells with empty vector in the background group) was defined as 100% (control, Uc), which was counted as a standard for the calculation of the percentage (%) of the intake value U (after deducting the background) in each administration group after adding the tested compounds against the intake value Uc in the control group, and the inhibitory rate (IR) of each concentration on the activity of the transporter was calculated to express the extent of the inhibitory effect of the compounds on the transporters. […]

[14] = target: T2, URAT-1 (Homo sapiens, UniProt Q96S37); test: Inhibition of 14C-uric acid uptake in MDCK cells stably transfected with URAT-1 gene; assay type: cell-based; conditions: MDCK cells stably transfected with URAT-1, substrate 14C-uric acid 50 μM; read-out: IC50 of the inhibitory effect on URAT-1
T2 construct: expressed in transfected cells
T2 sequence (Q96S37 1-553): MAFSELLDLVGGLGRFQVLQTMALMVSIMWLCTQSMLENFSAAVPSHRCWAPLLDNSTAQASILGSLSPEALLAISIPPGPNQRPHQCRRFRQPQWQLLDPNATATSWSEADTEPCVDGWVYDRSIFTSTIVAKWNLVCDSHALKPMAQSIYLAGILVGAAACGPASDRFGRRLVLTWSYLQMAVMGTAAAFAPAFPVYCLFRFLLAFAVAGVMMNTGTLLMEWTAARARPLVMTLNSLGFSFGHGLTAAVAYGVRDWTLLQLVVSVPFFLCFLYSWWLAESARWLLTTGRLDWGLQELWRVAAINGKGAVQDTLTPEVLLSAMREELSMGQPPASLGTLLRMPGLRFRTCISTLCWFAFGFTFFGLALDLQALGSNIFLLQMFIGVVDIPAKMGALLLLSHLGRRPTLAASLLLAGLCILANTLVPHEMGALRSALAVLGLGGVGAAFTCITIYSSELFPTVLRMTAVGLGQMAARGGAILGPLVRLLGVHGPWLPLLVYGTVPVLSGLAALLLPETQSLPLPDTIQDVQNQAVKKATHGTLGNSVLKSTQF
Method: The IC50 values of the compounds in inhibiting uric acid reabsorption were determined using MDCK (canine kidney cell) cell line stably transfected with DRAT-1 (uric acid transporter) gene.
DRAT-1 (MDCK) cell line: MDCK cells stably transfected with URAT-1 gene.
Cell culture medium: MEM (minimum essential medium Eagle) medium supplemented with 10% FBS (fetal bovine serum), 1% sodium pyruvate and 250 μg/mL G418 (geneticin).
1) The supernatant of the cell culture medium was removed by aspiration and the cells were rinsed with 10 mL PBS (phosphate buffered saline solution).
2) Preheated trypsin was added into the rinsed cell culture flask, and then the flask was rotated to make the trypsin evenly cover the bottom of the flask and the cells were digested at room temperature.
3) 10-15 mL of culture medium was used to suspend the cells in each T150 flask. 0.1 mL of the cells was sucked out and 2-fold diluted with trypan blue solution, and then the cells were counted. […]
^14C labelled-uric acid solution was diluted and added into the cell plate to obtain a final concentration of 50 μM. […] After adding the scintillation liquid, the signal was read in a liquid scintillation counter Tri-Carb.
According to the luminescent data, the inhibitory effect of the compounds on URAT-1 was analyzed, and the percent inhibition was calculated. […]

[15] = PO, 10 mg/kg, listed as Compound 1a (crystal form B)
[16] = male, cynomolgus monkey, plasma, iv, 2 mg/kg, IV, 2 mg/kg
[17] = male, cynomolgus monkey, plasma, po, 10 mg/kg, PO, 10 mg/kg
[18] = IV, 2 mg/kg, listed as Compound 1b (crystal form C)
[19] = PO, 10 mg/kg, listed as Compound 1b (crystal form C)

- Metabolite detection [1]: no metabolite was detected
- UV area percentage [1]: 100%
- Area under the curve AUG0-inf ([2]; IV, 2 mg/kg, listed as Compound 1a (crystal form B)): 15.709 µM·h
- Area under the curve AUG0-inf [2, 15]: 89.77 µM·h
- Bioavailability F [2, 15]: 132%
- Mean drug concentration in urine (0-24 h) Curine, 0-24 h [2, 15]: 54.403 µM
- Mutual transformation between the two axially chiral isomers in vivo [2]: no mutual transformation
- Vd [2, 16]: 0.533 L/kg
- clearance [2, 16]: 0.293 L/h/kg
- half-life [2, 16]: 3.39 h
- C0 [2, 16]: 32 µM
- MRT inf [2, 16]: 1.83 h
- half-life [2, 17]: 4.1 h
- Cmax [2, 17]: 22.6 µM
- MRT inf [2, 17]: 4.65 h
- Tmax [2, 17]: 1.33 h
Compound: O=C(O)CSc1nnc(Br)n1-c1c(Cl)cc(C2CC2)c2ccccc12 (single isomer, unassigned) [Compound 1a]

- UV area percentage [1]: 95.60%
- Area under the curve AUG0-inf ([2]; PO, 10 mg/kg): 69.3 µM·h
- Mean drug concentration in urine (0-24 h) Curine, 0-24 h ([2]; PO, 10 mg/kg): 71.622 µM
- half-life [2, 17]: 3.78 h
- Cmax [2, 17]: 37.2 µM
- MRT inf [2, 17]: 3.44 h
- Tmax [2, 17]: 0.58 h
Compound: O=C(O)CSc1nnc(Br)n1-c1ccc(C2CC2)c2ccccc12 (racemic) [(±)-Lesinurad, lesinurad, reference compound]
- Amount of lesinurad and metabolites (Total 100) [3]: 92.1%
- Amount of lesinurad and metabolites (Total 100) [4]: 98.1%
- Amount of lesinurad and metabolites (Total 100) [5]: 100%
- Amount of lesinurad and metabolites (Total 100) [6]: 100%
- Amount of lesinurad and metabolites (Total 100) [7]: 100%
- Amount of lesinurad and metabolites (Total 100) [8]: 100%
- Amount of lesinurad and metabolites (Total 100) [9]: 100%
- Amount of lesinurad and metabolites (Total 100) [10]: 92.1%
- Percentage of the administered dose ([11]; Faeces): 1.5%
- Percentage of the administered dose ([11]; Urine): 31.3%

- Solid stability (conclusion) [12]: good stability
- IC50 ([13]; substrate 3H-estrone ammonium sulfate, read-out: IC50 of the inhibition on OAT-4 transporting 3H-ES (3H-estrone ammonium sulfate)): 17.1 µM
- IC50 ([13]; substrate 14C-uric acid, read-out: IC50 of the inhibition on OAT-4 transporting 14C-UA (14C-uric acid)): 7.92 µM
- IC50 [14]: 10.4 µM
- Area under the curve AUG0-inf ([2]; IV, 2 mg/kg): 18.389 µM·h
- Area under the curve AUG0-inf ([2]; PO, 10 mg/kg): 120.062 µM·h
- Mean drug concentration in urine (0-24 h) Curine, 0-24 h ([2]; PO, 10 mg/kg): 38.915 µM
- Vd [2, 16]: 1.09 L/kg
- clearance [2, 16]: 0.252 L/h/kg
- half-life [2, 16]: 3.61 h
- C0 [2, 16]: 42.2 µM
- MRT inf [2, 16]: 4.01 h
- bioavailability ([2]; male, cynomolgus monkey, plasma, po, 10 mg/kg, PO, 10 mg/kg, read-out: Bioavailability F): 131%
- half-life [2, 17]: 3.34 h
- Cmax [2, 17]: 46.1 µM
- MRT inf [2, 17]: 3.76 h
- Tmax [2, 17]: 0.83 h
Compound: O=C(O)CSc1nnc(Br)n1-c1c(Cl)cc(C2CC2)c2ccccc12 [Compound 1]

Compound: O=C(O)CSc1nncn1-c1ccc(C2(O)CC2)c2ccccc12 [Compound M5]
- Percentage of the administered dose ([11]; Faeces): 3.6%

Compound: O=C(O)CSc1nnc(Br)n1-c1ccc(C2CC2)c2c1C=CC(O)C2O (centres unmarked) [Compound M4]
- Amount of lesinurad and metabolites (Total 100) [3]: 5.69%
- Amount of lesinurad and metabolites (Total 100) [4]: 0.47%
- Amount of lesinurad and metabolites (Total 100) [7]: not detected
- Amount of lesinurad and metabolites (Total 100) [9]: not detected
- Percentage of the administered dose ([11]; Faeces): 5.0%
- Percentage of the administered dose ([11]; Urine): 15.7%

Compound: O=C(O)CSc1nncn1-c1ccc(C2CC2)c2ccccc12 [Compound M2]
- Percentage of the administered dose ([11]; Faeces): 4.8%
- Percentage of the administered dose ([11]; Urine): 0.3%

- IC50 [14]: > 20 µM
- Metabolite detection [1]: no metabolite was detected
- UV area percentage [1]: 100%
- Apparent volume of distribution Vdss [2, 18]: 0.661 L/kg
- Area under the curve AUG0-inf [2, 18]: 16.092 µM·h
- Clearance rate Cl [2, 18]: 0.287 L/h/kg
- Half-life T1/2 [2, 18]: 4.28 h
- Residence time MRT0-inf [2, 18]: 2.34 h
- C0 ([2]; IV, 2 mg/kg, listed as Compound 1b (crystal form C), 2 mg/kg): 42.1 µM
- Area under the curve AUG0-inf [2, 19]: 62.456 µM·h
- Bioavailability F [2, 19]: 77.6%
- Half-life T1/2 [2, 19]: 4.46 h
- Residence time MRT0-inf [2, 19]: 5.74 h
- Time to peak Tmax [2, 19]: 2.33 h
- Cmax ([2]; PO, 10 mg/kg, listed as Compound 1b (crystal form C), 10 mg/kg): 13.2 µM
- Mean drug concentration in urine (0-24 h) Curine, 0-24 h [2, 19]: 7.976 µM
- Mutual transformation between the two axially chiral isomers in vivo [2]: no mutual transformation
Compound: O=C(O)CSc1nnc(Br)n1-c1c(Cl)cc(C2CC2)c2ccccc12 (single isomer, unassigned) [Compound 1b]

Compound: O=C(O)CSc1nnc(Br)n1-c1ccc(C2(O)CC2)c2ccccc12 [Compound M3]
- Amount of lesinurad and metabolites (Total 100) [3]: 2.24%
- Amount of lesinurad and metabolites (Total 100) [4]: 1.45%
- Amount of lesinurad and metabolites (Total 100) [7]: not detected
- Amount of lesinurad and metabolites (Total 100) [9]: not detected
- Amount of lesinurad and metabolites (Total 100) [10]: 7.9%
- Percentage of the administered dose ([11]; Faeces): 0.3%
- Percentage of the administered dose ([11]; Urine): 12.0%
